Results taken from patent US8192962B2, “Processes for detecting toxic substances” (Daikin Industries, Ltd., priority 2001, dated 2012).

Test system: Detoxification protein genes
Assay: DNA chip mRNA expression in yeast, detoxification protein genes (Table 8)
Assay type: cell-based, Saccharomyces cerevisiae S288C
Summary of the method: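 In this screen, yeast in logarithmic growth are challenged for two hours with a toxic substance at a non-lethal inhibitory concentration. Their mRNA, converted to Cy3- or Cy5-labeled cDNA, hybridizes at 65° C. to a chip spanning every yeast gene, and expression is expressed as a ratio to untreated cells.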

Measured: The level of expressed mRNA in the presence of chemical substance/The level of expressed mRNA in the absence of chemical substance

manganese ethylenebis(dithiocarbamate) [(8)]
1.3: yeast gene YCL069W | yeast gene YDR453C | yeast gene YIR038C | yeast gene YJL101C | yeast gene YKR105C | yeast gene YKR106W | yeast gene YNL239W
1.0: yeast gene YBR145W | yeast gene YBR244W | yeast gene YDR538W | yeast gene YER185W | yeast gene YGR138C
0.7: yeast gene YKR066C | yeast gene YLL028W | yeast gene YMR015C | yeast gene YOL158C | yeast gene YOR247W
2.8: yeast gene YBR008C
0.9: yeast gene YBR293W | yeast gene YEL027W | yeast gene YEL065W | yeast gene YFL050C | yeast gene YHR008C | yeast gene YKL064W | yeast gene YNL241C | yeast gene YOR031W
2.2: yeast gene YHR053C | yeast gene YML116W
0.8: yeast gene YDR256C | yeast gene YGR088W | yeast gene YGR197C | yeast gene YML028W
1.8: yeast gene YKL026C
1.5: yeast gene YCR083W | yeast gene YHL040C | yeast gene YHL047C | yeast gene YJR104C | yeast gene YNL259C
1.2: yeast gene YIR002C
2.4: yeast gene YBL064C
5.8: yeast gene YLL060C
0.5: yeast gene YLR046C | yeast gene YOR153W | yeast gene YPL163C
2.1: yeast gene YHR055C
1.6: yeast gene YDR513W | yeast gene YGR209C
1.4: yeast gene YCL035C | yeast gene YGL013C | yeast gene YGL254W | yeast gene YLL057C | yeast gene YPR200C
1.9: yeast gene YHR048W | yeast gene YMR038C
1.7: yeast gene YDL100C | yeast gene YDL168W
0.6: yeast gene YGR224W | yeast gene YOR273C
1.1: yeast gene YLR043C | yeast gene YOR251C
